According to patent publication US5466815A, “Tetrazole derivatives of bile acids, and their use as lipid level lowering medicaments” (Hoechst Aktiengesellschaft, priority 1993, dated 1995):

Biological target: T1, intestinal bile acid transportation system (Na^+ -dependent) in brush border membrane vesicles of the ileum (Oryctolagus cuniculus, UniProt Q28727)
T1 construct: Brush border membrane vesicles were prepared from the intestinal cells of the small intestine; from tissue; host or cells: brush border membrane vesicles from the terminal 7/10 of the small intestine (ileum) of male New Zealand rabbits
T1 sequence (Q28727 1-347): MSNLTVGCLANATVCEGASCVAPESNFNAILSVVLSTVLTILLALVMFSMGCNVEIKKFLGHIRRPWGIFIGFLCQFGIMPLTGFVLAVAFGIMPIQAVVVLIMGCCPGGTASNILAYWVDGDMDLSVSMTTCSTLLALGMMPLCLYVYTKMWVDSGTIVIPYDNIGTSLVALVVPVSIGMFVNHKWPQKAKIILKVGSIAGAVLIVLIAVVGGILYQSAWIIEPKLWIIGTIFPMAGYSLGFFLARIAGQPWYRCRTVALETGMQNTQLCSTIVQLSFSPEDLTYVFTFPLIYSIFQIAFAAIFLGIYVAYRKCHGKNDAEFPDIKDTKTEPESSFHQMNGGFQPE
Test: Inhibition of [^3 H]-taurocholate uptake in brush border membrane vesicles of the ileum of rabbits
Assay type: biochemical, rabbit
Conditions: 50 μM taurocholate, usually 1 minute; for IC50Na TCDC / IC50Na -substance: quotient of IC50Na of reference taurochenodeoxycholate (TCDC) and IC50Na of test substance, Na^+ -dependent transportation content (Na-T-B minus K-T-B); for IC50 -TCDC / IC50 -substance: quotient of IC50 of reference taurochenodeoxycholate (TCDC) and IC50 of test substance, [^3 H]-taurocholate uptake
Experimental: The compounds according to the invention were tested biologically by determination of the inhibition of [^3 H]-taurocholate uptake in brush border membrane vesicles of the ileum of rabbits. The inhibition test was carried out as follows:
1. Preparation of Brush Border Membrane Vesicles from the Ileum of Rabbits
Brush border membrane vesicles were prepared from the intestinal cells of the small intestine by the so-called Mg^2+ precipitation method. Male New Zealand rabbits (2 to 2.5 kg bodyweight) were sacrificed by intravenous injection of 0.5 ml of an aqueous solution of 2.5 mg Tetracain HCl, 100 T61^R and 25 mg of mebezonium iodide. The small intestine was rinsed with ice-cold physiological saline solution. The terminal […] of the small intestine (measured in the oral-rectal direction, i.e. the terminal ileum, which contains the active Na^+ -dependent bile acid transportation system) was used for preparation of the brush border membrane vesicles. The intestines were frozen in plastic bags under nitrogen at -80° C. For preparation of the membrane vesicles, the frozen intestines were […] at 30° C. in a water-bath. The mucosa was scraped off and suspended in 60 ml of ice-cold 12 mM Tris/HCl buffer (pH 7.1)/300 mM mannitol, 5 mM EGTA/10 mg/l of phenylmethylsulfonylfluoride/1 mg/l of trypsin inhibitor for soya beans (32 U/mg)/0.5 mg/l of trypsin inhibitor from bovine lung (193 U/mg)/5 mg/l of bacitracin. After dilution to 300 ml with ice-cold distilled water, the mixture was homogenized with an Ultraturrax (18-rod, IKA Werk Staufen, FRG) for 3 minutes at 75 % of the maximum power, while cooling with ice. After addition of 3 ml of 1M MgCl2 solution (final concentration 10 mM), the mixture was left to stand at 0° C. for exactly 1 minute. By addition of Mg^2+, the cell membranes aggregate and precipitate, with the exception of the brush border membranes. After centrifugation at 3000×g (5000 revolutions per minute, SS-34 rotor) for 15 minutes, the precipitate is discarded and the supernatant, which contains the brush border membranes, was centrifuged at […] (15000 revolutions per minute, SS-34 rotor) for 30 minutes. The supernatant was discarded and the precipitate was rehomogenized in 60 ml of 12 mM tris/HCl buffer (pH 7.1)/60 mM mannitol, 5 mM EGTA using a Potter Elvejhem homogenizer (Braun, Melsungen, 900 revolutions per minute, 10 strokes). After addition of 0.1 ml of 1M MgCl2 solution and an incubation time of 15 minutes at 0° C., the mixture was centrifuged again at 3000×g for 15 minutes. The supernatatant was then centrifuged again at 46000×g (15000 revolutions per minute, SS-34 rotor) for 30 minutes. The precipitate was taken up in 30 ml of 10 mM Tris/Hepes buffer (pH 7.4)/300 mM mannitol and resuspended homogeneously by 20 strokes in a Potter Elvejhem homogenizer at 1000 revolutions per minute. After centrifugation at 48000×g (20000 revolutions per minute, SS-34 rotor) for 30 minutes, the precipitate was taken up in 0.5 to 2 ml of Tris/Hepes buffer (pH 7.4)/280 mM mannitol (final concentration 20 mg/ml) and resuspended with the aid of a tuberculin syringe with a 27 gauge needle. The vesicles were either used for transportation studies immediately after preparation or stored at -196° C. in 4 mg portions in liquid nitrogen.
2. Inhibition of the Na^+ -dependent [^3 H]-taurocholate Uptake in the Brush Border Membrane Vesicles of the Ileum
The uptake of substrates into the brush border membrane vesicles described above was determined by means of the so-called membrane filtration technique. 10 μl of the vesicle suspension (100 μg of protein) were pipetted as drops onto the wall of a polystyrene incubation tube (11×70 mm) which contained the incubation medium with the corresponding ligands (90 μl). […]

Compound | IC50Na TCDC / IC50Na -substance | IC50 -TCDC / IC50 -substance
C[C@H](Cc1nn[nH]n1)[C@H]1CC[C@H]2[C@@H]3[C@H](O)C[C@@H]4C[C@H](O)CC[C@]4(C)[C@H]3C[C@H](O)[C@]12C [Example 4] | 0.38 | 0.28
C[C@H](CCCc1nn[nH]n1)[C@H]1CC[C@H]2[C@@H]3[C@H](O)C[C@@H]4C[C@@H](OCCO)CC[C@]4(C)[C@H]3C[C@H](O)[C@]12C [Example 16] | 0.25 | 0.26
CC(CCCc1nn[nH]n1)C1CCC2C3C(O)CC4CC(O)CCC4(C)C3CC(O)C12C (centres unmarked) [Example 14] | 1.35 | 1.20
C[C@H](CCC(=O)NCCO[C@H]1CC[C@@]2(C)[C@@H](C1)C[C@@H](O)[C@@H]1[C@@H]2C[C@H](O)[C@]2(C)[C@@H]([C@H](C)CCCc3nn[nH]n3)CC[C@@H]12)[C@H]1CC[C@H]2[C@@H]3[C@@H](O)C[C@@H]4C[C@H](O)CC[C@]4(C)[C@H]3CC[C@]12C [Example 27] | 0.25 | 0.26
C[C@H](CCC(=O)Nc1nn[nH]n1)[C@H]1CC[C@H]2[C@@H]3[C@H](O)C[C@@H]4C[C@H](O)CC[C@]4(C)[C@H]3C[C@H](O)[C@]12C [Example 24] | 1.27 | 0.97
C[C@H](CCC(=O)N[C@H]1CC[C@@]2(C)[C@@H](C1)C[C@@H](O)[C@@H]1[C@@H]2C[C@H](O)[C@]2(C)[C@@H]([C@H](C)CCC(=O)Nc3nn[nH]n3)CC[C@@H]12)[C@H]1CC[C@H]2[C@@H]3[C@H](O)C[C@@H]4C[C@H](O)CC[C@]4(C)[C@H]3C[C@H](O)[C@]12C [Example 22] | 1.35 | 1.66
C[C@H](CCC(=O)NCc1nn[nH]n1)[C@H]1CC[C@H]2[C@@H]3[C@H](O)C[C@@H]4C[C@H](O)CC[C@]4(C)[C@H]3C[C@H](O)[C@]12C [Example 29] | 0.48 | 0.46
